Publication PMC3463587, “A Series of Beta-Carboline Derivatives Inhibit the Kinase Activity of PLKs” (PLoS ONE, 2012)
Read-outs that look alike come from different tables or passages of the source.

How the values were obtained:
[1] = tested on: cdc5-2 mutant yeast cells; experiment: Yeast growth inhibition (MIC), cdc5-2 mutant; conditions: 25°C, 24 hr
Method: The Cdc5 kinase is the functional homologue of PLK1 in budding yeast and the incubation of cdc5-2 mutants at 37°C impairs the kinase activity and stops cell growth. […] We also compared the sensitivity of wild-type and cdc5-2 mutant cells to the selected compounds at different concentrations. […] The temperature sensitive cdc5-2 mutants and wild-type strains were used. […] After incubation at 25°C for 24 hr, the growth of the yeast cells was determined by measuring OD600.

MRC5 cells [2] = experiment: cells; conditions: Homo sapiens, MRC5, 48 h, read-out: IC50 MRC5, MTT, 48 hr, non-cancer cells
Method: (§2) All the beta-carboline derivatives were provided by Xinjiang Huashidan Pharmaceutical Co. Ltd. The culture media and fetal bovine serum (FBS) were purchased from Hyclone (Hyclone Laboratories Inc., USA). […] All the cell lines were obtained from the Cell Culture Centre, Institute of Basic Medical Science, Chinese Academy of Medical Science and incubated at 37°C supplied with 5% CO2. HeLa cells were grown in standard DMEM with 10% FBS.
(§3) MRC5, HeLa, HepG2, PC3 and MG63 cells were seeded at 3000–6000 cells/well (200 µl/well) in a 96-well plate and incubated overnight. Then different concentrations of compounds were added into the cell cultures with a final concentration of 0.1% DMSO and incubated for an additional 48 hr. After that, 22 µl MTT solution (5 mg/ml) was added into each well and incubated at 37°C for 4 hr.

HeLa cells [3] = experiment: Immunofluorescence of spindle (anti-α-tubulin); type: cell-based, human; conditions: 1.21 µM, 24 hr
From the text: PLK1 plays a pivotal role in centrosome maturation and spindle formation during mitosis. Thus, the down-regulation of PLK1 activity would prevent centrosome maturation as well as the formation of a bipolar spindle. Anti-α-tubulin antibody was used for immunofluorescence staining in order to examine the spindle structure in cells treated with the beta-carboline compounds.
HeLa cells were collected and then grown onto cover-slips. […] After washed with washing buffer (Beyotime, P0106) for 3 times, the cells were incubated with blocking buffer (Beyotime, P0102) for 60 min. The primary antibody anti-α-tubulin (Abcam) was used at 1∶200 dilutions; H&L (Cy5)-labeled secondary antibody was used at 1∶200 dilutions. The cover-slips were then mounted with PBS:glycerol (1∶1) mounting medium containing DAPI and examined under an inverted confocal microscope. Images were analyzed by the 3D image software Volocity (Improvision).

PC3 cells = experiment: MTT cell proliferation assay, PC3; type: cell-based; conditions: Homo sapiens, PC-3, 48 hr
From the text: BI2536 was purchased from Selleck (Selleck, USA).

PLK2 = PLK2 (Homo sapiens, UniProt Q9NYY3); experiment: In vitro kinase assay PLK2; type: biochemical
Sequence of PLK2 (Q9NYY3 whole entry, species assumed): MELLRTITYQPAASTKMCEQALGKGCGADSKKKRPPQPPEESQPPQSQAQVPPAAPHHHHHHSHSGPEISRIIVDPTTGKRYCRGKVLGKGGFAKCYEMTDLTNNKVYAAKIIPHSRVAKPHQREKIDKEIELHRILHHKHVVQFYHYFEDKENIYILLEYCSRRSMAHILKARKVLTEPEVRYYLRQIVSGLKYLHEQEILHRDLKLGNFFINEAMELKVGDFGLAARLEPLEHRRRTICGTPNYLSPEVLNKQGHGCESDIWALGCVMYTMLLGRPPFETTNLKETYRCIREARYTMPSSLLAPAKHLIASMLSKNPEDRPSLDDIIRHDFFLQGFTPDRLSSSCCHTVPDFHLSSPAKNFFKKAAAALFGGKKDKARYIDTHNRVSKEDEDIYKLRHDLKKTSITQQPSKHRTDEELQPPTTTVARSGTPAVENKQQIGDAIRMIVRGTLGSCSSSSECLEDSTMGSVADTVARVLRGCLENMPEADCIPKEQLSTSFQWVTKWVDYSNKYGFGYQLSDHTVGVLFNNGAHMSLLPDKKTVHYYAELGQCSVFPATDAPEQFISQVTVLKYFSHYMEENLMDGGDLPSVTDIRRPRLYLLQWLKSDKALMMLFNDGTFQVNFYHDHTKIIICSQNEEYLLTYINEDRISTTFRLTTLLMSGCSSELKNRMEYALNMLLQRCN
Method: (§1) The inhibition of PLK1 kinase activity was assessed using the Cyclex PLK1 Assay/Inhibitor Screening Kit (MBL International Corporation, Japan). The kit includes anti-phospho-threonine polyclonal antibody (PPT-07) and peroxidase coupled anti-rabbit IgG antibody as a reporter in a 96-well ELSIA format. Compounds were used at the concentrations from 10^− ^3 to 10^2 µg/ml and the absorbance was determined at 450 nm. A similar protocol was used to determine the kinase inhibition for PLK2, PLK3, Aurora A and Aurora B. The kinase activity of CDK1/cyclinB and CDK2/cyclinE was analyzed in the presence of serially diluted inhibitors. For each reaction, 20 ng of recombinant kinase was used and […] casein from bovine milk (Sigma) was added as the kinase substrate. The kinase reaction buffer contains 8 mM MOPS pH7.0, 0.2 mM EDTA, 0.1 mg/ml histone H1, 10 mM and MgAcetace and [γ^− ^33P-ATP] (500 cpm/pmol). The reaction was initiated by adding the MgATP mix. After incubation for 40 minutes at room temperature, the reaction was stopped by the addition of 3% phosphoric acid solution. We spotted 10 µl of the reaction mixture onto a P30 filtermat and washed three times for 5 min with 75 mM phosphoric acid and once with methanol prior to drying and scintillation counting.

CDK1/cyclinB(h) = CDK1/cyclinB(h) (Homo sapiens, UniProt P06493); experiment: In vitro kinase assay CDK1/cyclinB (33P-ATP); type: biochemical
Sequence of CDK1/cyclinB(h) (P06493 whole entry): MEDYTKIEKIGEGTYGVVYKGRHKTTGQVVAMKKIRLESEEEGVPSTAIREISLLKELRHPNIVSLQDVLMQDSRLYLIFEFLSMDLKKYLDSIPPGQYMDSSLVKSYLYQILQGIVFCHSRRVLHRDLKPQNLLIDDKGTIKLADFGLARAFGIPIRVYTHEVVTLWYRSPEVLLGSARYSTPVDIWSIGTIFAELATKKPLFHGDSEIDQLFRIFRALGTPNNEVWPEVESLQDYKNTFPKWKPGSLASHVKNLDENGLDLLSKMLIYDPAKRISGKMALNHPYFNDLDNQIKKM
Sequence of CDK1/cyclinB(h) (P14635 whole entry partner): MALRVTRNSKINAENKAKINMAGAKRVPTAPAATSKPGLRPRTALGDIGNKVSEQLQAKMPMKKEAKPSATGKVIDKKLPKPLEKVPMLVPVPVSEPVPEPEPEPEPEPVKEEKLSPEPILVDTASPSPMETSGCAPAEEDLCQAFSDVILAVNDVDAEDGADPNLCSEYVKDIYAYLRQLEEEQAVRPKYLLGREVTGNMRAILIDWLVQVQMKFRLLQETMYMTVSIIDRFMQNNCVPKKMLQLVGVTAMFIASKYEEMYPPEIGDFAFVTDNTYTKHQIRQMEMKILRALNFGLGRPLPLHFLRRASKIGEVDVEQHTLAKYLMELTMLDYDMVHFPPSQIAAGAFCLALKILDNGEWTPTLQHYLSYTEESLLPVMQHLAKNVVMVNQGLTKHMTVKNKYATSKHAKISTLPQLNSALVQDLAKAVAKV
Method: as §1

HeLa cells [4] = experiment: FACS cell cycle analysis (PI), HeLa; type: cell-based, human
Method: It is well documented that PLK1 is involved in multiple steps in mitosis, such as centrosome maturation and establishment of bipolar spindle. […] Therefore, the down-regulation of PLK1 would change the distribution of cells in different cell cycle stages. To test this possibility, fluorescence-activated cell sorter (FACS) analysis was used to analyze the DNA content of HeLa cells treated with the identified PLK1 inhibitors, DH281, DH285, and DH287. HeLa cells were first incubated in the absence and presence of these compounds at different concentrations (0, 0.12, 0.48 and 1.92 µM) for 48 hr. […] Treatment with a lower concentration of the compounds (0.12 and 0.48 µM) also led to an obvious increase of the cell population in G2/M phase (Figure 4A, Table 3). Moreover, the proportion of HeLa cells in G2/M phase increased over time after incubation in the presence of 0.8 µM of DH281, DH285 and DH287 (Figure 4B, Table 4). […] We also determined the cell cycle distribution of the non-cancer MRC5 cells after treatment with DH281 at different concentrations. […] It is also possible that inhibition of the kinase activity of the whole PLK family by beta-carboline compounds results in the defect in cell cycle progression.
[…] The floated and attached cells were treated by trypsinization and washed with cold PBS. The cells were then fixed with 70% (v/v) ethanol at 4°C overnight. The fixed cells were washed twice with PBS and incubated with 50 µg/mL RNase A (Sigma, USA) and 50 µg/mL propidium iodide (PI) (Sigma, USA) at 37°C for 30 min.

CDK2/cyclinE(h) = CDK2/cyclinE(h) (Homo sapiens, UniProt P24941); experiment: In vitro kinase assay CDK2/cyclinE (33P-ATP); type: biochemical
Method: as §1

MRC5 cells [5] = conditions: read-out: IC50 MRC5; MTT, 48 hr, non-cancer cells
Method: as §2, §3

| Structure (SMILES) | difference in the MICs, cdc5-2 compared to wild-type cells [1] [fold] | IC50 (MRC5 cells [2]) [µM] | spindle structure (HeLa cells [3]) | IC50 (PC3 cells) [µM] | IC50 (PLK2) [µM] | IC50 (CDK1/cyclinB(h)) [µM] | cells in G1 (HeLa cells [4]; 0.12 µM, 48 hr) [%] | cells in G2 (G2/M) (HeLa cells [4]; 0.12 µM, 48 hr) [%] | cells in S (HeLa cells [4]; 0.12 µM, 48 hr) [%] | cells in G1 (HeLa cells [4]; 0.48 µM, 48 hr) [%] | cells in G2 (G2/M) (HeLa cells [4]; 0.48 µM, 48 hr) [%] | cells in S (HeLa cells [4]; 0.48 µM, 48 hr) [%] | cells in G1 (HeLa cells [4]; 0.8 µM, 24 hr) [%] | cells in G2 (G2/M) (HeLa cells [4]; 0.8 µM, 24 hr) [%] | cells in S (HeLa cells [4]; 0.8 µM, 24 hr) [%] | cells in G1 (HeLa cells [4]; 0.8 µM, 36 hr) [%] | cells in G2 (G2/M) (HeLa cells [4]; 0.8 µM, 36 hr) [%] | cells in S (HeLa cells [4]; 0.8 µM, 36 hr) [%] | cells in G1 (HeLa cells [4]; 0.8 µM, 48 hr) [%] | cells in G2 (G2/M) (HeLa cells [4]; 0.8 µM, 48 hr) [%] | also measured |
| --- | --- | --- | --- | --- | --- | --- | --- | --- | --- | --- | --- | --- | --- | --- | --- | --- | --- | --- | --- | --- | --- |
| Cc1c2c(cc[n+]1Cc1ccccc1)c1ccc(OCc3ccc(F)cc3)cc1n2CCCc1ccccc1 [DH281] | 2 to 4 | 4.73 ± 0.51 | induced formation of monopolar spindles | 0.94 ± 0.23 | 3.82 | 42.1 | 70.5 | 10.1 | 19.4 | 55.3 | 14.4 | 30.3 | 64.1 | 10.2 | 25.7 | 53.4 | 18.9 | 27.7 | 42.4 | 16.6 | cells in S (HeLa cells [4]; 0.8 µM, 48 hr): 41.1%; cells in G1 (HeLa cells [4]; 0.8 µM, 60 hr): 33.9%; cells in G2 (G2/M) (HeLa cells [4]; 0.8 µM, 60 hr): 14.6%; cells in S (HeLa cells [4]; 0.8 µM, 60 hr): 51.6%; cells in G1 (HeLa cells [4]; 1.92 µM, 48 hr): 38.4%; cells in G2 (G2/M) (HeLa cells [4]; 1.92 µM, 48 hr): 26.7%; cells in S (HeLa cells [4]; 1.92 µM, 48 hr): 34.9%; IC50 (CDK2/cyclinE(h)): > 100 µM |
| Cc1c2c(cc[n+]1Cc1ccccc1)c1ccc(OCc3ccccc3)cc1n2Cc1ccccc1 [DH287] | 2 to 4 | 3.03 | induced formation of monopolar spindles | 2.86 ± 0.19 | 4.3 | 39.4 | 77.3 | 6.86 | 15.9 | 64.8 | 14.2 | 21.0 | 64.5 | 10.2 | 25.3 | 54.6 | 15.9 | 29.5 | 49.3 | 13.0 | IC50 (MRC5 cells [5]): 3.06 ± 0.69 µM; cells in S (HeLa cells [4]; 0.8 µM, 48 hr): 37.8%; cells in G1 (HeLa cells [4]; 0.8 µM, 60 hr): 30.6%; cells in G2 (G2/M) (HeLa cells [4]; 0.8 µM, 60 hr): 16.6%; cells in S (HeLa cells [4]; 0.8 µM, 60 hr): 52.8%; cells in G1 (HeLa cells [4]; 1.92 µM, 48 hr): 51.9%; cells in G2 (G2/M) (HeLa cells [4]; 1.92 µM, 48 hr): 21.0%; IC50 (CDK2/cyclinE(h)): > 100 µM |
